Source: PubChem BioAssay (NCI)
Where “and” joins values, the source holds several entries; their conditions need not be identical. Equal values may be shown once.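 96-well plates; 48 h exposure; 5 concentrations. Endpoints by linear interpolation between flanking doses. Not reached: highest tested concentration assigned. Here, GI50 denotes the concentration required for 50% inhibition of growth. At the TGI there is no net growth.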

Tests used:
Experiment in all cases: NCI anticancer screen, dose series, 48 h
PC-3 prostate = system: PC-3 prostate
SF-268 CNS = system: SF-268 CNS
KM12 colon = system: KM12 colon
SNB-75 CNS = system: SNB-75 CNS
EKVX NSCLC = system: EKVX NSCLC
IGROV1 ovarian = system: IGROV1 ovarian
A498 renal = system: A498 renal
RPMI-8226 leukemia = system: RPMI-8226 leukemia
HOP-62 NSCLC = system: HOP-62 NSCLC
NCI-H226 lung = system: NCI-H226 lung

| SMILES | GI50 (PC-3 prostate) | TGI (PC-3 prostate) | GI50 (SF-268 CNS) | TGI (SF-268 CNS) | GI50 (KM12 colon) | TGI (KM12 colon) | GI50 (SNB-75 CNS) | TGI (SNB-75 CNS) | GI50 (EKVX NSCLC) | TGI (EKVX NSCLC) | GI50 (IGROV1 ovarian) | TGI (IGROV1 ovarian) | GI50 (A498 renal) | TGI (A498 renal) | GI50 (RPMI-8226 leukemia) | TGI (RPMI-8226 leukemia) | GI50 (HOP-62 NSCLC) | TGI (HOP-62 NSCLC) | GI50 (NCI-H226 lung) | TGI (NCI-H226 lung) |
| --- | --- | --- | --- | --- | --- | --- | --- | --- | --- | --- | --- | --- | --- | --- | --- | --- | --- | --- | --- | --- |
| C=CC(=O)Nc1cc(Nc2nccc(-c3cn(C)c4ccccc34)n2)c(OC)cc1N(C)CCN(C)C | 2.74 µM and 2.11 µM | 12.1 µM and 5.55 µM | 1.95 µM and 1.87 µM | 7.02 µM and > 10 µM | 2.31 µM and 2.12 µM | 5.49 µM and 5.41 µM | 3.52 µM and 2.57 µM | 16.4 µM and > 10 µM | 0.751 µM and 0.2 µM | 4.08 µM and 3.4 µM | 1.14 µM and 0.407 µM | 7.58 µM and 2.68 µM | 1.11 µM and 1.48 µM | 3.25 µM and 4.12 µM | 1.95 µM and 1.45 µM | 6.65 µM and 4.08 µM | 4.07 µM and 3.58 µM | 18.3 µM and > 10 µM | 3.93 µM and 1.39 µM | 13.1 µM and 3.4 µM |
| COc1cc2c(cc1OC)C(Cl)C(c1ccc(F)cc1)=C2Cl (centres undefined) | – | 24.9 µM | – | 39.5 µM | – | 32.3 µM | – | 29.1 µM | – | 40.7 µM | – | 37.2 µM | – | 29.9 µM | – | 39.2 µM | – | 30.1 µM | – | 74 µM |
| COc1ccccc1NC(=O)c1cc2cc(Br)ccc2cc1O | 1.83 µM | 6.79 µM | 3.21 µM | 16.2 µM | 3.17 µM | 10.8 µM | 2.12 µM | 8.89 µM | 1.77 µM | 8.1 µM | 1.6 µM | 6.56 µM | 2.96 µM | 11 µM | 1.45 µM | 4.66 µM | 2.38 µM | 6.86 µM | 1.65 µM | 6.06 µM |
| O=C(O)C(Cl)Cl | > 10000 µM | > 10000 µM | 4970 µM and > 10000 µM | > 10000 µM | > 10000 µM | > 10000 µM | 3500 µM and > 10000 µM | > 10000 µM | > 10000 µM | > 10000 µM | > 10000 µM | > 10000 µM | 2670 µM and > 10000 µM | > 10000 µM | 3210 µM and > 9400 µM | > 10000 µM | > 10000 µM | > 10000 µM | 8130 µM and > 10000 µM | > 10000 µM |
| O=C1c2c(F)c(F)c(F)c(F)c2C(=O)N1c1ccc(F)cc1F | 6.21 µM | 27.2 µM | 10.1 µM | 27.8 µM | 22.5 µM | 65.5 µM | 12.7 µM | 34.6 µM | 16.8 µM | 35.9 µM | 6.54 µM | 19.3 µM | 25.8 µM | 55.1 µM | 3.81 µM | 65.4 µM | 15.2 µM | 31.4 µM | 17.2 µM | 50.8 µM |
| CN1CCN(c2ccc(Nc3ncc(Cl)c(NC[C@@H]4CCCO4)n3)cc2)CC1 | 2.24 µM | > 100 µM | 1.55 µM | 12.9 µM | 0.362 µM | 11.7 µM | 1.14 µM | 4.72 µM | 1.69 µM | 5.74 µM | 1.56 µM | > 100 µM | 0.803 µM | 3.36 µM | 1.48 µM | 5.63 µM | 0.705 µM | 4.61 µM | 0.266 µM | 6.47 µM |
| Br[Se]c1ccccn1 | – | 30 µM | – | 32.2 µM | – | 31.7 µM | – | 30.7 µM | – | 31.5 µM | – | 31.5 µM | – | 34 µM | – | 60.9 µM | – | 12.2 µM | – | 36.8 µM |
| CC(=O)Nc1cc2ccc(=O)oc2cc1Cl | – | > 100 µM | – | > 100 µM | – | > 100 µM | – | > 100 µM | – | > 100 µM | – | > 100 µM | – | > 100 µM | – | > 100 µM | – | > 100 µM | – | > 100 µM |
| O=C1CSC(=S)N1/N=C/c1ccc(Cl)c([N+](=O)[O-])c1 | – | 65.6 µM | – | 40.2 µM | – | > 100 µM | – | > 100 µM | – | 76.9 µM | – | > 100 µM | – | > 100 µM | – | > 100 µM | – | 86.3 µM | – | > 100 µM |
| CC(=O)OC1(C)N=NC2(CCCCC2)O1 (centres undefined) | – | > 100 µM | – | > 100 µM | – | > 100 µM | – | > 100 µM | – | > 100 µM | – | > 100 µM | – | > 100 µM | – | > 100 µM | – | > 100 µM | – | > 100 µM |
| COCCn1cc(-c2nc(-c3cc4cccnc4[nH]3)cs2)c2cc(OC)ccc21 | 3.13 µM | 13.3 µM | 3.82 µM | > 100 µM | 0.203 µM | 9.38 µM | 1.22 µM | 5.83 µM | 0.0827 µM | 4.43 µM | 0.81 µM | > 34.5 µM | 1.86 µM | 6.18 µM | 3.94 µM | > 36.2 µM | 2.2 µM | 9.36 µM | 1.57 µM | 27.6 µM |
| Cc1cc2c(cc1C)[n+](=O)c(C(=O)c1ccccc1)c(C(F)F)n2[O-] | 16.1 µM | > 100 µM | 13 µM | > 100 µM | 20.5 µM | > 100 µM | 60.9 µM | > 100 µM | 9.43 µM | 44.6 µM | 15.1 µM | > 100 µM | 24.5 µM | 91.1 µM | 5.81 µM | 43.9 µM | 26.4 µM | > 100 µM | 25.5 µM | 72.9 µM |
| CC(C)[C@@H]1NC(=O)[C@]2(C)CSC(=N2)c2ccnc(c2)CNC(=O)C[C@@H](/C=C/CCS)OC1=O | 0.0669 µM | > 100 µM | 0.421 µM | > 100 µM | 0.0857 µM | > 86.1 µM | 0.0912 µM | > 100 µM | 0.234 µM | > 100 µM | 0.159 µM | 2.43 µM | 0.0323 µM | 0.254 µM | 1.49 µM | > 27.7 µM | 0.0525 µM | – | 0.458 µM | 12.4 µM |
| O=C1c2ccccc2C(=O)c2c(/C=C\N3CCCCC3)ccnc21 | – | 28 µM | – | 39.9 µM | – | 18 µM | – | 7.2 µM | – | 31.2 µM | – | 36.8 µM | – | 31.8 µM | – | 52.6 µM | – | 13.9 µM | – | 8.31 µM |
| CCOc1ccc(NC2=CC(=O)C(=O)c3ccccc32)cc1 | – | 19.8 µM | – | 22.4 µM | – | 12.2 µM | – | 5.35 µM | – | 30.9 µM | – | 16.9 µM | – | 12.2 µM | – | 26.2 µM | – | 12 µM | – | 13.3 µM |
| NC(=S)N/N=C1\c2cc(Cl)ccc2-c2c1cc(Cl)cc2[N+](=O)[O-] | 3.21 µM | > 100 µM | 9.79 µM | > 100 µM | 5.14 µM | 88.8 µM | 2.84 µM | 28.3 µM | 4.65 µM | 95.6 µM | 5.68 µM | > 100 µM | 1.38 µM | 8.57 µM | 3.44 µM | 20.5 µM | 7.12 µM | 74.7 µM | 5.25 µM | > 100 µM |
